According to patent publication US5310667A (priority 1989, dated 1994):

Tests used:
[1] = test system: bacteria harboring pMON342 or pMON9566 (double pL promoter, petunia EPSP synthase); assay: Glyphosate tolerance of bacteria in growth media; format: cell-based, E. coli; conditions: very high expression of the enzyme
Experimental: The double pL promoter used to express the petunia EPSP synthase in pMON342 and pMON9566 leads to a very high level of expression of the enzyme. The enzyme is present at such high concentration that bacteria harboring either of these plasmids are tolerant to very high levels of glyphosate ([…]) in growth media, even though the enzyme produced by pMON342 is the wild type form. […] A plasmid for identifying such a promoter was constructed as follows: pMON9544, the precursor to pMON342, was digested with BamHI to remove the pL promoters, and was recircularized by ligation resulting in pMON362. The EcoRI fragment of pMON9556 containing the 3'-cDNA portion of the petunia EPSPS cDNA was then inserted into the EcoRI site of this plasmid reconstituting the entire coding sequence. The resulting plasmid, pMON364 is identical to pMON342 except that there is no promoter 5' of the EPSP synthase coding sequence.

[2] = test system: E. coli SR481 (aroA-) carrying pMON8143; assay: Growth on minimal medium containing glyphosate; format: cell-based
From the text: (§1) Chromosomal DNA isolated from the E. coli strain SR20 (GM42 hfr, his-, dam3-) was digested completely with MboI. The MboI fragments were cloned into the BglII site of plasmid pMON9564. The BglII site is in a multilinker located upstream of the promoterless petunia EPSPS coding sequence which had been tailored for expression in E. coli. The ligation mixture was used to transform E. coli strain SR481, the aroA- variant lacking endogenous EPSPS activity. Forty-one colonies were obtained which contained MboI fragments with sufficient promoter activity to express the Petunia EPSPS cDNA, complementing the aroA defect in SR481 and supporting cell growth on minimal medium. The 41 colonies were streaked individually onto MOPS minimal medium containing glyphosate at 1, 5, 10, 15 and 20 μM concentrations. The amount of cell growth on increasing concentrations of glyphosate was used as a measure of the relative promoter strength of each MboI fragment expressing the petunia EPSPS coding sequence. To further characterize each of the MboI promoter fragments, plasmid miniprep DNA was prepared by the alkaline lysis method from each of the 41 colonies and was digested individually with EcoRI, BamHI, HindIII, ClaI and NcoI. Those restriction enzymes were chosen because they cut within, or flank the petunia EPSPS coding sequence and would be used for mobilizing mutagenized fragments. Therefore, ideal promoter fragments would not contain restriction sites for any of those enzymes. There were 8 MboI fragments with varying degrees of promoter activity which lacked restriction sites for the enzymes listed above. Two of them, pMON8105 and pMON8143, were selected for further characterization. Both plasmids complemented the aroA defect and supported the growth of SR481 on minimal medium containing up to 1 mM (pMON8105) and 20 mM (pMON8143) glyphosate.

[3] = test system: E. coli SR481 (aroA-) carrying pMON8105; assay: Growth on minimal medium containing glyphosate; format: cell-based
From the text: as §1

[4] = target: variant maize preenzyme product of pMON8617 (glycine to alanine and glycine to aspartate) (Zea mays, UniProt A0A1D6NVZ6, G163A/G206D); assay: EPSP synthase activity of in vitro translation product; format: biochemical
variant maize preenzyme product of pMON8617 (glycine to alanine and glycine to aspartate), sequence (A0A1D6NVZ6 entry or part of it G163A/G206D): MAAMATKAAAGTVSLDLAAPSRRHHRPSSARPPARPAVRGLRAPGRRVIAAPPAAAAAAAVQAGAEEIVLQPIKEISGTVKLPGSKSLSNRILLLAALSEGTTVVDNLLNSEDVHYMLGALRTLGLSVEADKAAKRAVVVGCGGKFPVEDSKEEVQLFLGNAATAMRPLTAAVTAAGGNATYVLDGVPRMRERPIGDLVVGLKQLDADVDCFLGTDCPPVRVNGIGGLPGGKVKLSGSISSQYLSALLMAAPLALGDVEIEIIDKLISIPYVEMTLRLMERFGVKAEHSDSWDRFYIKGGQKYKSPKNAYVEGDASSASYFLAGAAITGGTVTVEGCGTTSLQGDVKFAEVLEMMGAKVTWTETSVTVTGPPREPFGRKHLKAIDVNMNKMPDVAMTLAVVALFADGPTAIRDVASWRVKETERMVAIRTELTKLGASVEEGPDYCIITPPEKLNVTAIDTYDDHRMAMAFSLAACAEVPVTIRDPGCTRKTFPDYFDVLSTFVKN
Experimental: (§2) To an assay mix (40 μl) containing shikimate-3-phosphate (2 mM), ^14 C-phosphoenolpyruvate (1 mM, 1.2 mCi/mmol), ammonium molybdate (0.1 mM), potassium fluoride (5 mM) in 50 mM HEPES-KOH, pH 7, was added the extract and incubated at 25° C. for 2 mins. The reaction was quenched by the addition of 50 μl of 50 μl of 90% ethanol/0.1M acetic acid, pH 4.5. 70 μl of the reaction mixture was loaded on a SynchroPak AX100 HPLC column (0.4×25 cm) and the column was eluted with 0.5M potassium phosphate, pH 5.5 at 1 ml/min. The radioactivity of the eluent was monitored using a Radiomatic Flo-One Beta Instrument. (Radiomatics, Fla.). The EPSP synthase activity was determined by measurement of the conversion of ^14 C-PEP to ^14 C-EPSP synthase, both of which are resolved under the above conditions of chromatography. The protein content of the extract was determined by the method of Bradford (Biorad Labs, Calif.). The specific activity of the extract is expressed as nanomoles of EPSP synthase formed/min/mg protein.
(§3) The linearized plasmid DNA was transcribed in vitro with T7 polymerase essentially as described by Krieg et al. (1984). The standard reaction buffer contained 40 mM Tris-HCl (pH 7.9), 6 mM MgCl2, 10 mM dithiothreitol, 2 mM spermidine, 80 U RNAsin ribuonuclease inhibitor, 0.5 mM each of ATP, GTP, CTP and UTP, in a final reaction volume of 100 μl. The final RNA pellet was resuspended in 20 μl of sterile water and stored at -80° C. A standard translation reaction contained 100 μl of nuclease-treated rabbit reticulocyte lysate, 5.7 μl of a 19-amino acid mixture (minus methionine) at 1 mM each, 5.7 μl of RNA (total RNA transcripts derived from 0.63 μg of plasmid DNA), 16 μl RNAsin (20U/μl) ribonuclease inhibitor, and 58.3 μl of [^35 S] methionine (14-15 mCi/ml). The in vitro translation products were stored frozen at -80° C.
(§4) The products of the in vitro translation were then assayed for EPSP synthase activity as described herein.

[5] = target: wild type maize pre-EPSP synthase (pMON9951 product) (Zea mays, UniProt A0A1D6NVZ6); assay: as above; format: biochemical; conditions: 1.0 mM glyphosate
wild type maize pre-EPSP synthase (pMON9951 product), sequence (A0A1D6NVZ6 1-506): as the sequence (A0A1D6NVZ6 entry or part of it G163A/G206D) above, with A163G, D206G counted along it
Experimental: as §2, §3, §4

[6] = target: T1, variant petunia EPSP synthase with glycine (101) to alanine and glycine (144) to asparagine substitutions (Petunia hybrida, UniProt P11043, G173A/G216N); assay: EPSP synthase kinetic constants (Ki glyphosate, Km PEP); format: biochemical
T1 construct: GGT codon for glycine (144) in the mature petunia EPSP synthase
T1 sequence (P11043 73-516 G173A/G216N): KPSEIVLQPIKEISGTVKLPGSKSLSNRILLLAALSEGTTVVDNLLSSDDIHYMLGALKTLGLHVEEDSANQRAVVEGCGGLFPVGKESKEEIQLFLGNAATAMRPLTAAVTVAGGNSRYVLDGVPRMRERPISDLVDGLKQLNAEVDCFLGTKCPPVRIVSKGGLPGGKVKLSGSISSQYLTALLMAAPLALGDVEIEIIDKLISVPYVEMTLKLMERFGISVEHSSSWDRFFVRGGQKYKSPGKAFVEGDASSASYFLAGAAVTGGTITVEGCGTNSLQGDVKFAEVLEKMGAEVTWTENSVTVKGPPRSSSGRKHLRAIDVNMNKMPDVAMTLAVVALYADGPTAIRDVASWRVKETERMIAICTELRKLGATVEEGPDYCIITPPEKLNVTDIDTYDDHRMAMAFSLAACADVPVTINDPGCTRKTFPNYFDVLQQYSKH
Experimental: Kinetic constants (appKm PEP and appKi glyphosate) were determined for EPSP synthase as described below. Substrate kinetic parameters were determined at pH 7.0 in 50 mM HEPES (N-[2-hydroxyethyl]piperazine-N'-[2-ethanesulfonic acid]) buffer in the presence of 2 mM S3P and varying amounts of ^14 C-PEP (10 μM-400 μM), for 2.0 minutes at 25° C. Reactions were quenched with 100 mM Na Acetate in ethanol, pH 4.5, centrifuged and analyzed for product EPSP formation by HPLC with flow radioactivity detection. HPLC conditions were 0.35 MKPi, pH 6.5, on a Synchropak AX100 column at 1.0 ml/min.

[7] = test system: E. coli JM101 culture #215 (pMON8186); assay: Growth curve analysis in liquid MOPS medium with glyphosate; format: cell-based; conditions: MOPS medium containing 10 mM glyphosate, 37° C.
Experimental: This growth curve analysis functioned as a tertiary screen and was performed in the following way:
Glyphosate resistant colonies were picked off the selection plates and inoculated individually into precultures containing 1 ml of MOPS medium and 50 μg/ml carbenicillin. The precultures were then grown to saturation by shaking the cultures overnight at 37° C. The next morning the density of each culture was determined by withdrawing a 100 μl aliquot from each and diluting it 10 fold with the addition of 900 μl MOPS medium, then reading the optical density at a wavelength of 660 nm in a spectrophotometer. The saturated precultures were then diluted to 1% by adding 50 μl from each saturated preculture to 5 ml of MOPS media containing 0, 5 or 10 mM glyphosate. The diluted precultures were grown in glass culture tubes fitted with stainless steel closures, rotating on a wheel at 37° C. The glass culture tubes were designed for direct reading in a Klett-Summerson photoelectric colorimeter, which was used to monitor the growth of the bacterial cultures at approximately 3 hour intervals.

O=C(O)CNCP(=O)(O)O [glyphosate, N-phosphonomethylglycine]
level of glyphosate tolerated in growth media [1]: > 50 µM | glyphosate concentration up to which growth on minimal medium is supported [2]: ≤ 20 mM | growth on 1 mM glyphosate ([3]; 1 mM glyphosate): could not support the growth | glyphosate concentration up to which growth on minimal medium is supported ([3]; minimal medium): up to 1 mM | inhibition of EPSP synthase activity ([4]; 1 mM glyphosate): only slight inhibition | inhibition of EPSP synthase activity ([4]; 100 mM glyphosate): greater inhibition, but still showing detectable activity | EPSP synthase activity in the presence of glyphosate [5]: no activity was detected | Ki for glyphosate [6]: 960 µM | Ki/Km ([6]; Ki glyphosate / Km PEP): 10.5 | time of growth to saturation [7]: ≤ 11 h
